The values that follow come from US20090227534A1, “Pharmaceutical Composition Comprising the Combination of a Ketorolac Salt and Vitamins of the-B-Complex for the Treatment of Neuralgia” (LABORATORIOS SENOSITAN S.A. DE C.V., priority 2006, published 2009).

Read-outs that look alike come from different tables or passages of the source.

For series [1], the system named is rat paw. Kind of series: Antinociceptive effect, heat-stimulation model in the rat paw (carrageen). The following applies: oral, measured for 6 hours. Type of series: in vivo. The procedure:
Methodology: We worked with five groups of 8 rats each. The antinociceptive effect was evaluated through the heat-stimulation model in the rat paw. Used substances: saline solution, carrageen to produce the nociceptive effect (pain), ketorolac, riboflavin and B-complex (vitamins B1, B6 and B12). For the doses-response curve, each group received a ketorolac dose so that 0.32, 1, 1.8, 3.2 y 10 mg/kg of weight were administrated orally. The antinociceptive effect was measured for 6 hours. Latency time curves were plot on a graph (the time rat takes before moving […] its paw to avoid the pain) as a function of time. Saline solution was used as a negative control solution (establishing the base level) and carrageen to produce a sensitizing effect (inflammation). […] The following were administered: Riboflavin (alone), Ketorolac (alone), B-Complex (alone), Ketorolac and Riboflavin combination, and Ketorolac and B-Complex combination. Isobolograms were made in order to evaluate the interaction between ketorolac and B-complex using the ED25 values (effective doses) obtained from the dose-response curves for the administered drugs alone or combined.

A short description of series [2]: Solubility of ketorolac in water. It is filed as physicochemical. From the text: (§1) Clinical studies have shown that ketorolac is a strong and effective analgesic. […] Ketorolac is one of the few non-steroidal anti-inflammatory drugs approved for parenteral administration. However, when administered in combination with other substances, it usually presents stability problems.

The conditions of series [3]: cited from earlier work; for time to reach maximum plasma concentration (tmax): healthy humans.
Series [4] in a line: Laboratory stability tests: ketorolac with acid solutions, direct combination with B-complex, light exposure. Type of series: physicochemical. The method, then: as §1
Currently, there are no individual pharmaceutical forms for the parenteral administration of ketorolac at 15 mg/ml and B-complex, as described in this invention.
The above situation makes impossible to simply combine ketorolac and B-complex, making it necessary to research and develop a system that provides appropriate stability characteristics for parenteral administration.

The test system of series [5] is rats. Kind of series: Antinociception, formalin test (1% 50 μl), second phase. Particulars: rat, phase two; for Emax: read-out: maximum effect (decrease in number of shakes). It is filed as in vivo.
Experimental: We worked with five groups of 8 rats each. The antinociception effect was evaluated via the formalin test (1% 50 μl); rats are placed in an observation chamber made of acrylic material. The nociceptive behavior was evaluated based on the number of shakes at the injected paw.
Used substances: saline solution, formalin (produces nociceptive effect), ketorolac, riboflavin and B-complex (vitamins B1, B6 and B12).
For the dose-response curve, each group received a 0.32-10 mg/kg of ketorolac dose, 6.25-100 mg/kg of riboflavin, 56-316 mg/kg of B-complex, ketorolac-B-complex combination and ketorolac-riboflavin combinations.
The antinociceptive effect was measured for sixty minutes. […] Acute or initial phase from 0 to 10 minutes and tonic phase from 15 to 60 minutes.
Curves for the number of shakes against time were plot and the area under the curve was obtained (AUC) for the second phase, using the trapezoids method.
The dose-response curve for each composition was obtained as the percentage of the maximum possible effect.
The antinociceptive effect of ketorolac, B-complex in ratios of 100:100:1 of B1, B6 and B12 (respectively), riboflavin, ketorolac-B-complex combination, and ketorolac-riboflavin combination were evaluated.
A saline solution was used as a negative control solution (base level).
Administration: riboflavin (alone), ketorolac (alone), B-complex (alone), ketorolac-riboflavin combination, and ketorolac-B-complex combination.

For `O=C(c1ccccc1)c1ccc2n1CCC2C(=O)O` (racemic) [ketorolac, (±)-5(benzoyl)-2,3-dihydro-1N-pyrrolizine-1-carboxylic acid tris hydroxy methyl amino methane], the “antinociceptive effect (area under the latency curve as a function of time), dose-response” value in series [1] was “dose-dependant response”. The solubility in water entry in series [2] was “highly soluble”. Besides, the “time to reach maximum plasma concentration (tmax)” value in series [3] (intramuscular) is 46 min. In series [3] (oral), the “time to reach maximum plasma concentration (tmax)” value was 53 min. In addition, in series [3] (humans), the excreted in feces is 6% and the excreted in urine was 92%. Besides, in series [4], the “stability when acid solutions are present” value is recorded as “decreases significantly”. For the same molecule, in series [5], the ED25 is 2.1 ± 0.5 mg/kg and the Emax came out at 36%.

As for `Cc1cc2nc3c(=O)[nH]c(=O)nc-3n(C[C@H](O)[C@H](O)[C@H](O)CO)c2cc1C` [riboflavin, Riboflavin], the “antinociceptive effect (area under the latency curve as a function of time), dose-response” value in series [1] was “dose-dependant response”. Also, in series [5], the ED25 stood at 39.8 ± 7.1 mg/kg and the Emax stood at 33%.
